Results published in patent publication US20250275966A1, “GABAA RECEPTOR MODULATOR SALTS, PARTICLES, AND USES THEREOF” (Engrail Therapeutics, Inc., priority 2022, published 2025).
Like-named read-outs stand apart in the source and are kept apart here.

Legend:
[1] = Exposure after oral dose of micronized vs non-micronized particles of Compound 1 free base (Example 3); type: in vivo; conditions: male Cynomolgus monkeys, QD, 300 mg/kg, plasma, Mean (n = 3)
Description: Exposure of Compound 1 free base following oral (PO) dose administration of 300 mg/kg/dose of micronized particles (Example 1) and 300 mg/kg/dose non-micronized particles (Example 2) were assessed in male Cynomolgus monkeys. Blood samples were collected in K2EDTA coated polypropylene tubes from the femoral vein and plasma was separated. Samples were drawn at the following time points: pre-dose, 15 min, 30 min, 1, 2, 4, 8, 10, 12, 14, 24, 30, and 48 hours post-dose. The concentrations of Compound 1 were determined by LC-MS/MS and pharmacokinetic parameters were determined using Phoenix WinNonlin v8.0) software. [table]

[2] = Oral non-human primate crossover PK study (Example 7); type: in vivo, cynomolgus monkeys; conditions: four male cynomolgus monkeys, single PO capsule, 34.2 mg/kg fumarate salt (M-3, N-3); for C24(h): 24 hours post-dose, 30 mg/kg free base (K-13); for AUC / Tmax: equivalent on a molar basis to 30 mg/kg free base (K-13)
Description: An objective of this study is to determine the Pharmacokinetic (PK) profile of the Test Article following a single oral administration to four male non-human primate cynomolgus monkeys with one (1) week wash out periods.
Four male animals are used for this study, and the four study animals are used for each of three dosing phases with one-week washout periods. Food is withheld overnight prior to dose administration, and food is returned four hours post-dose administration. Water is provided ad libitum by automatic watering device. Two of the four animals are previously treated with Compound 1, and the other two are Compound 1 naive. Test Article (M-3, N-3, or K-13) are provided as capsulized powders; stored at room temperature protected from light in, for example, a polyolefin bottle.

| Structure (SMILES) | AUClast/Dose [1] [kg·ng·h/mL/mg] | AUC∞/Dose [1] [kg·ng·h/mL/mg] | C24(h) [2] [ng·mL] | AUC [2] [ng·h/mL] | Tmax [2] [h] | also measured |
| --- | --- | --- | --- | --- | --- | --- |
| [2H]C([2H])([2H])C(c1cc2nnc(-c3cc(F)ccc3F)n2nc1OCc1ncnn1C)(C([2H])([2H])[2H])C([2H])([2H])[2H] [micronized, 3-(2,5-difluorophenyl)-7-[1,1-di(methyl-d3)ethyl-2,2,2-d3]-6-[(1-methyl-1H-1,2,4-triazol-5-yl)methoxy]-1,2,4-triazolo[4,3-b]pyridazine] | 530 ± 537 | 650 ± 730 |  |  |  | AUC(0-inf) ([1]; male, cynomolgus monkey, po): 195000 ± 219000 ng·h/mL; AUC(0-t) ([1]; male, cynomolgus monkey, po): 159000 ± 161000 ng·h/mL; Cmax ([1]; male, cynomolgus monkey, po, read-out: Cmax): 6900 ± 5500 ng/mL; Tmax ([1]; male, cynomolgus monkey, po, read-out: Tmax): 4 ± 3.5 h |
| [2H]C([2H])([2H])C(c1cc2nnc(-c3cc(F)ccc3F)n2nc1OCc1ncnn1C)(C([2H])([2H])[2H])C([2H])([2H])[2H] [Compound M-3] |  |  | 603 | 17826 | 10 |  |
| [2H]C([2H])([2H])C(c1cc2nnc(-c3cc(F)ccc3F)n2nc1OCc1ncnn1C)(C([2H])([2H])[2H])C([2H])([2H])[2H] [Compound K-13, 3-(2,5-difluorophenyl)-7-[1,1-di(methyl-d3)ethyl-2,2,2-d3]-6-[(1-methyl-1H-1,2,4-triazol-5-yl)methoxy]-1,2,4-triazolo[4,3-b]pyridazine] |  |  | 42 | 1192 | 14 |  |
| [2H]C([2H])([2H])C(c1cc2nnc(-c3cc(F)ccc3F)n2nc1OCc1ncnn1C)(C([2H])([2H])[2H])C([2H])([2H])[2H] [Compound N-3] |  |  | 684 | 21540 | 4 |  |
| [2H]C([2H])([2H])C(c1cc2nnc(-c3cc(F)ccc3F)n2nc1OCc1ncnn1C)(C([2H])([2H])[2H])C([2H])([2H])[2H] [non-micronized, 3-(2,5-difluorophenyl)-7-[1,1-di(methyl-d3)ethyl-2,2,2-d3]-6-[(1-methyl-1H-1,2,4-triazol-5-yl)methoxy]-1,2,4-triazolo[4,3-b]pyridazine] | 297 ± 349 | 328 ± 397 |  |  |  | AUClast [1]: 89225 ± 104664 ng·h/mL; AUC∞ [1]: 98365 ± 119106 ng·h/mL; Cmax [1]: 5373 ± 4112 ng/mL; Tmax [1]: 3.30 ± 1.20 h |
